{"source": "ChEMBL document CHEMBL4622932", "about": "“Design, synthesis and biological evaluation of new Myo-inositol derivatives as potential RAS inhibitors” (Bioorg Med Chem Lett, 2020)", "key": {"[1]": {"target": "GTPase KRas (Homo sapiens) (UniProt P01116)", "assay": "Inhibition of KRAS in human MCF7 cells assessed as reduction in ERK1/2 137F5 protein level at 25 uM measured after 24 hrs by Western blot analysis relative to control", "format": "cell-based"}, "[2]": {"target": "GTPase KRas (Homo sapiens) (UniProt P01116)", "assay": "Inhibition of KRAS in human MCF7 cells assessed as reduction in phosphorylated ERK1/2 at Thr185/Tyr187 residues protein level at 25 uM measured after 24 hrs by Western blot analysis relative to control", "format": "cell-based"}, "[3]": {"target": "GTPase KRas (Homo sapiens) (UniProt P01116)", "assay": "Inhibition of KRAS in human MCF7 cells assessed as reduction in Pan RAS protein level at 35 uM measured after 24 hrs by Western blot analysis relative to control", "format": "cell-based"}, "[4]": {"target": "GTPase KRas (Homo sapiens) (UniProt P01116)", "assay": "Inhibition of KRAS in human MCF7 cells assessed as reduction in phosphorylated RAF-1 E1 protein level at 35 uM measured after 24 hrs by Western blot analysis relative to control", "format": "cell-based"}, "[5]": {"target": "GTPase KRas (Homo sapiens) (UniProt P01116)", "assay": "Inhibition of KRAS in human MCF7 cells assessed as reduction in MEK1/2 9G3 protein level at 35 uM measured after 24 hrs by Western blot analysis relative to control", "format": "cell-based"}, "[6]": {"target": "GTPase KRas (Homo sapiens) (UniProt P01116)", "assay": "Inhibition of KRAS in human MCF7 cells assessed as reduction in phosphorylated MEK1/2 at Ser217/221 residues protein level at 35 uM measured after 24 hrs by Western blot analysis relative to control", "format": "cell-based"}, "[7]": {"target": "GTPase KRas (Homo sapiens) (UniProt P01116)", "assay": "Inhibition of KRAS in human MCF7 cells assessed as reduction in ERK1/2 137F5 protein level at 35 uM measured after 24 hrs by Western blot analysis relative to control", "format": "cell-based"}, "[8]": {"target": "GTPase KRas (Homo sapiens) (UniProt P01116)", "assay": "Inhibition of KRAS in human MCF7 cells assessed as reduction in phosphorylated ERK1/2 at Thr185/Tyr187 residues protein level at 35 uM measured after 24 hrs by Western blot analysis relative to control", "format": "cell-based"}, "[9]": {"target": "GTPase KRas (Homo sapiens) (UniProt P01116)", "assay": "Inhibition of KRAS in human MDA-MB-231 cells assessed as reduction in phosphorylation of RAF measured after 24 hrs by Western blot analysis", "format": "cell-based"}, "[10]": {"target": "GTPase KRas (Homo sapiens) (UniProt P01116)", "assay": "Inhibition of KRAS in human MDA-MB-231 cells assessed as reduction in phosphorylation of MEK measured after 24 hrs by Western blot analysis", "format": "cell-based"}, "[11]": {"target": "GTPase KRas (Homo sapiens) (UniProt P01116)", "assay": "Inhibition of KRAS in human MDA-MB-231 cells assessed as reduction in phosphorylation of ERK measured after 24 hrs by Western blot analysis", "format": "cell-based"}, "MDA-MB-231 [12]": {"tested_on": "MDA-MB-231", "assay": "Induction of apoptosis in human MDA-MB-231 cells assessed as live cells at 15 uM measured after 48 hrs by annexinV-FITC/propidium iodide staining based flow cytometry (reference value: 99 %)", "format": "functional"}, "MDA-MB-231 [13]": {"tested_on": "MDA-MB-231", "assay": "Induction of apoptosis in human MDA-MB-231 cells assessed as early apoptotic cells at 15 uM measured after 48 hrs by annexinV-FITC/propidium iodide staining based flow cytometry (reference value: 0.69 %)", "format": "functional"}, "MDA-MB-231 [14]": {"tested_on": "MDA-MB-231", "assay": "Induction of apoptosis in human MDA-MB-231 cells assessed as late apoptotic cells at 15 uM measured after 48 hrs by annexinV-FITC/propidium iodide staining based flow cytometry (reference value: 0 %)", "format": "functional"}, "MDA-MB-231 [15]": {"tested_on": "MDA-MB-231", "assay": "Induction of apoptosis in human MDA-MB-231 cells assessed as necrotic cells at 15 uM measured after 48 hrs by annexinV-FITC/propidium iodide staining based flow cytometry (reference value: 0.31 %)", "format": "functional"}, "MDA-MB-231 [16]": {"tested_on": "MDA-MB-231", "assay": "Induction of apoptosis in human MDA-MB-231 cells assessed as live cells at 25 uM measured after 48 hrs by annexinV-FITC/propidium iodide staining based flow cytometry (reference value: 99 %)", "format": "functional"}, "MDA-MB-231 [17]": {"tested_on": "MDA-MB-231", "assay": "Induction of apoptosis in human MDA-MB-231 cells assessed as early apoptotic cells at 25 uM measured after 48 hrs by annexinV-FITC/propidium iodide staining based flow cytometry (reference value: 0.69 %)", "format": "functional"}, "MDA-MB-231 [18]": {"tested_on": "MDA-MB-231", "assay": "Induction of apoptosis in human MDA-MB-231 cells assessed as late apoptotic cells at 25 uM measured after 48 hrs by annexinV-FITC/propidium iodide staining based flow cytometry (reference value: 0 %)", "format": "functional"}, "MDA-MB-231 [19]": {"tested_on": "MDA-MB-231", "assay": "Induction of apoptosis in human MDA-MB-231 cells assessed as necrotic cells at 25 uM measured after 48 hrs by annexinV-FITC/propidium iodide staining based flow cytometry (reference value: 0.31 %)", "format": "functional"}, "MCF7 [20]": {"tested_on": "MCF7", "assay": "Induction of apoptosis in human MCF7 cells assessed as live cells at 15 uM measured after 48 hrs by annexinV-FITC/propidium iodide staining based flow cytometry (reference value: 99.71 %)", "format": "functional"}, "MCF7 [21]": {"tested_on": "MCF7", "assay": "Induction of apoptosis in human MCF7 cells assessed as early apoptotic cells at 15 uM measured after 48 hrs by annexinV-FITC/propidium iodide staining based flow cytometry (reference value: 0.04 %)", "format": "functional"}, "MCF7 [22]": {"tested_on": "MCF7", "assay": "Induction of apoptosis in human MCF7 cells assessed as late apoptotic cells at 15 uM measured after 48 hrs by annexinV-FITC/propidium iodide staining based flow cytometry (reference value: 0.17 %)", "format": "functional"}, "MCF7 [23]": {"tested_on": "MCF7", "assay": "Induction of apoptosis in human MCF7 cells assessed as necrotic cells at 15 uM measured after 48 hrs by annexinV-FITC/propidium iodide staining based flow cytometry (reference value: 0.08 %)", "format": "functional"}, "MCF7 [24]": {"tested_on": "MCF7", "assay": "Induction of apoptosis in human MCF7 cells assessed as live cells at 25 uM measured after 48 hrs by annexinV-FITC/propidium iodide staining based flow cytometry (reference value: 99.71 %)", "format": "functional"}, "MCF7 [25]": {"tested_on": "MCF7", "assay": "Induction of apoptosis in human MCF7 cells assessed as early apoptotic cells at 25 uM measured after 48 hrs by annexinV-FITC/propidium iodide staining based flow cytometry (reference value: 0.04 %)", "format": "functional"}, "MCF7 [26]": {"tested_on": "MCF7", "assay": "Induction of apoptosis in human MCF7 cells assessed as late apoptotic cells at 25 uM measured after 48 hrs by annexinV-FITC/propidium iodide staining based flow cytometry (reference value: 0.17 %)", "format": "functional"}, "MCF7 [27]": {"tested_on": "MCF7", "assay": "Induction of apoptosis in human MCF7 cells assessed as necrotic cells at 25 uM measured after 48 hrs by annexinV-FITC/propidium iodide staining based flow cytometry (reference value: 0.08 %)", "format": "functional"}, "MDA-MB-231 [28]": {"tested_on": "MDA-MB-231", "assay": "Induction of necrosis in human MDA-MB-231 cells", "format": "functional, cell-based"}, "MDA-MB-231 [29]": {"tested_on": "MDA-MB-231", "assay": "Cell cycle arrest in human MDA-MB-231 cells assessed as accumulation at G1 phase at 15 uM measured after 48 hrs by propidium iodide/RNase staining based flow cytometry (reference value: 74.56 %)", "format": "functional"}, "MDA-MB-231 [30]": {"tested_on": "MDA-MB-231", "assay": "Cell cycle arrest in human MDA-MB-231 cells assessed as accumulation at G2 phase at 15 uM measured after 48 hrs by propidium iodide/RNase staining based flow cytometry (reference value: 3.35 %)", "format": "functional"}, "MDA-MB-231 [31]": {"tested_on": "MDA-MB-231", "assay": "Cell cycle arrest in human MDA-MB-231 cells assessed as accumulation at S phase at 15 uM measured after 48 hrs by propidium iodide/RNase staining based flow cytometry (reference value: 22.09 %)", "format": "functional"}, "MDA-MB-231 [32]": {"tested_on": "MDA-MB-231", "assay": "Cell cycle arrest in human MDA-MB-231 cells assessed as accumulation at G1 phase at 25 uM measured after 48 hrs by propidium iodide/RNase staining based flow cytometry (reference value: 74.56 %)", "format": "functional"}, "MDA-MB-231 [33]": {"tested_on": "MDA-MB-231", "assay": "Cell cycle arrest in human MDA-MB-231 cells assessed as accumulation at G2 phase at 25 uM measured after 48 hrs by propidium iodide/RNase staining based flow cytometry (reference value: 3.35 %)", "format": "functional"}, "MDA-MB-231 [34]": {"tested_on": "MDA-MB-231", "assay": "Cell cycle arrest in human MDA-MB-231 cells assessed as accumulation at S phase at 25 uM measured after 48 hrs by propidium iodide/RNase staining based flow cytometry (reference value: 22.09 %)", "format": "functional"}}}
{"smiles": "O=P(Oc1ccccc1)(Oc1ccccc1)OC1C2OC3(c4ccccc4)OC(C2O)C(O)C1O3", "note": "(centres undefined)", "values": [{"measurement": "fold change (FC)", "setting": "[1]", "value": 1.14}, {"measurement": "fold change (FC)", "setting": "[2]", "value": 0.91}, {"measurement": "fold change (FC)", "setting": "[3]", "value": 1.11}, {"measurement": "fold change (FC)", "setting": "[4]", "value": 1.05}, {"measurement": "fold change (FC)", "setting": "[5]", "value": 0.87}, {"measurement": "fold change (FC)", "setting": "[6]", "value": 0.86}, {"measurement": "fold change (FC)", "setting": "[7]", "value": 1.11}, {"measurement": "fold change (FC)", "setting": "[8]", "value": 0.35}, {"measurement": "inhibition", "setting": "[9]", "value": "Dose-dependent effect"}, {"measurement": "inhibition", "setting": "[10]", "value": "Dose-dependent effect"}, {"measurement": "inhibition", "setting": "[11]", "value": "Dose-dependent effect"}, {"measurement": "Activity", "setting": "MDA-MB-231 [12]", "value": 91.93, "unit": "%"}, {"measurement": "Activity", "setting": "MDA-MB-231 [13]", "value": 0.39, "unit": "%"}, {"measurement": "Activity", "setting": "MDA-MB-231 [14]", "value": 0.39, "unit": "%"}, {"measurement": "Activity", "setting": "MDA-MB-231 [15]", "value": 7.3, "unit": "%"}, {"measurement": "Activity", "setting": "MDA-MB-231 [16]", "value": 62.65, "unit": "%"}, {"measurement": "Activity", "setting": "MDA-MB-231 [17]", "value": 0.07, "unit": "%"}, {"measurement": "Activity", "setting": "MDA-MB-231 [18]", "value": 0.64, "unit": "%"}, {"measurement": "Activity", "setting": "MDA-MB-231 [19]", "value": 16.64, "unit": "%"}, {"measurement": "Activity", "setting": "MCF7 [20]", "value": 32.46, "unit": "%"}, {"measurement": "Activity", "setting": "MCF7 [21]", "value": 0.37, "unit": "%"}, {"measurement": "Activity", "setting": "MCF7 [22]", "value": 0.28, "unit": "%"}, {"measurement": "Activity", "setting": "MCF7 [23]", "value": 66.88, "unit": "%"}, {"measurement": "Activity", "setting": "MCF7 [24]", "value": 36.83, "unit": "%"}, {"measurement": "Activity", "setting": "MCF7 [25]", "value": 1.23, "unit": "%"}, {"measurement": "Activity", "setting": "MCF7 [26]", "value": 0.49, "unit": "%"}, {"measurement": "Activity", "setting": "MCF7 [27]", "value": 61.44, "unit": "%"}, {"measurement": "Activity", "setting": "MDA-MB-231 [28]", "value": "Dose-dependent effect"}, {"measurement": "Activity", "setting": "MDA-MB-231 [29]", "value": 34.45, "unit": "%"}, {"measurement": "Activity", "setting": "MDA-MB-231 [30]", "value": 21.02, "unit": "%"}, {"measurement": "Activity", "setting": "MDA-MB-231 [31]", "value": 44.74, "unit": "%"}, {"measurement": "Activity", "setting": "MDA-MB-231 [32]", "value": 59.93, "unit": "%"}, {"measurement": "Activity", "setting": "MDA-MB-231 [33]", "value": 0, "unit": "%"}, {"measurement": "Activity", "setting": "MDA-MB-231 [34]", "value": 40.07, "unit": "%"}]}
